For this assay, the target named is STING (Homo sapiens, UniProt Q86WV6). Briefly: STING antagonist activity, cell-based ISG54 promoter-reporter luciferase measurement of IRF activity (THP-1 dual / RAW-ISG cells). Particulars: Antagonist Activity of Exemplary Compounds, cell line and agonist not given. Here is the method: THP-1 dual cells (InvivoGen) were cultured under 5% CO2 at 37° C. in RPMI containing 10% fetal bovine serum (FBS), 100 IU mL-1 penicillin and 100 μg mL-1 streptomycin. RAW-ISG cells (InvivoGen) were cultured under 5% CO2 at 37° C. in DMEM containing 10% fetal bovine serum (FBS), 100 IU mL-1 penicillin and 100 μg mL-1 streptomycin. THP-1 dual cells were seeded into the 96 well assay plate on the day of assay whereas RAW cells were seeded into the 96 well assay plate 18 hours before the assay.
50,000 cells seeded in a 96-well flat bottom white assay plate were treated with different concentrations (10 uM to 0.01 uM) of compounds for 1 h followed by STING induction with either 30 nM SB 11285 or 10 ug/mL 2′-3′ cGAMP. The cells were then incubated for 20 hours @ 37° C. in CO2 incubator before measuring IRF activation by using Quanti-Luc (InvivoGen). The % inhibition was calculated as 100−{[(luminescence of COI treated well/luminescence of non-COI treated well)/100]×100}. IC50 was calculated by plotting in Xlfit.
50,000 cells seeded in a 96-well flat bottom white assay plate were treated with different concentrations (10 uM to 0.01 uM) of compounds for 1 h followed by STING induction with either 1 μM SB 11285 or 10 ug/mL 2′-3′ cGAMP. The cells were then incubated for 20 hours @ 37° C. in CO2 incubator before measuring IRF activation by using Quanti-Luc (InvivoGen). The % inhibition was calculated as 100−{[(luminescence of COI treated well/luminescence of non-COI treated well)/100]×100}. IC50 was calculated by plotting in Xlfit.
THP1-Dual-WT cells (InvivoGen) were plated into 96-well flat bottom plate at 5×10^4 cells/140 μL/well in triplicate. Cells were then treated with diluted antagonist compounds at 10 μL/well for 1 h, followed by treatment with compounds or 2′3′-cGAMP/lipo mixture for 18 h. The levels of IRF activity were determined using Quanti-luc (InvivoGen) and calculated against IRF activity in DMSO-treated cells. IC50 and CC50 values were calculated using Xlfit.

Drawing on US20220168309A1 (F-STAR THERAPEUTICS, INC., priority 2019, published 2022), this text covers IC50 for 38 compounds.

Like-named read-outs stand apart in the source and are kept apart here.

Sequence of STING (Q86WV6 whole entry): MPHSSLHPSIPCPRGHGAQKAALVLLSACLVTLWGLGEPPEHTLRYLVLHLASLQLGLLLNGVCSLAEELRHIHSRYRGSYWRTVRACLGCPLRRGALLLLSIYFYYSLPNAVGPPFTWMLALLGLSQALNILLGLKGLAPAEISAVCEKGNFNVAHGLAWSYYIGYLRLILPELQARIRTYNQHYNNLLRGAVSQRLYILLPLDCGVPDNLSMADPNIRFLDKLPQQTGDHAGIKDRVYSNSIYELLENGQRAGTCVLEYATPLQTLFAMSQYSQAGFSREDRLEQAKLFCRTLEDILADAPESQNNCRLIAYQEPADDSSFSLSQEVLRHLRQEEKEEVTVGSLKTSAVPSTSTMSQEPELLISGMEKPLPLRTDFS

By IC50 is commonly meant the concentration needed to halve the response being measured. Take `COC(=O)CCCCCCCCCCCCCCCn1cnc2c(Cl)nc(NC(C)=O)nc21` [Compound 47, methyl 16-(2-acetamido-6-chloro-9H-purin-9-yl)hexadecanoate]: under “read-out: IC50”, the IC50 is above 20000 nM.

As to `Cc1nc2nc(Cl)nc(S(=O)(=O)C(C)C)c2n1CCCCCCCCCCCCCCCC(=O)N(C)C` [Compound 150, 16-(2-chloro-6-(isopropylsulfonyl)-8-methyl-7H-purin-7-yl)-N,N-dimethylhexadecanamide], the IC50 (read-out: IC50) lay in the range of 1 to 1000 nM.

Take `COC(=O)CCCCCCCCCCCCCCCn1c(C)nc2nc(Cl)nc(OCCN(C)C)c21` [Compound 108, methyl 16-(2-chloro-6-(2-(dimethylamino)ethoxy)-8-methyl-7H-purin-7-yl)hexadecanoate]: the half-maximal inhibitory concentration (IC50) (read-out: IC50) was 1000 to 5000 nM.

Regarding `COC(=O)CCCCCCCCCCCCCCCn1cnc2nc(NC(C)=O)nc(Cl)c21` [Compound 46, methyl 16-(2-acetamido-6-chloro-7H-purin-7-yl) hexadecanoate], under “read-out: IC50”, the IC50 is above 20000 nM.

`COC(=O)CCCCCCCCCCCCCCCn1cnc2nc(Cl)ncc21` [Compound 2]: where the note is “read-out: IC50”, the half-inhibitory concentration (IC50) was in the range of 10000 to 20000 nM.

As for `CNc1nc(Cl)nc2ncn(CCCCCCCCCCCCCCCC(=O)OC)c12` [Compound 23, methyl 16-(2-chloro-6-(methylamino)-7H-purin-7-yl)hexadecanoate], the concentration for half-maximal inhibition (IC50) (read-out: IC50) was above 20000 nM.

For `CCOCCOCCOC(=O)CCCCCCCCCCCCCCCn1c(C)nc2nc(Cl)nc(Cl)c21` [Compound 99, 2-(2-ethoxyethoxy)ethyl 16-(2,6-dichloro-8-methyl-7H-purin-7-yl)hexadecanoate], the half-inhibitory concentration (IC50) (read-out: IC50) lay within 1000 to 5000 nM.

As to `O=P(O)(O)OCCCCCCCCCCCCCCCCn1cnc2nc(Cl)nc(Cl)c21` [Compound 88, 16-(2,6-dichloro-7H-purin-7-yl)hexadecyl dihydrogen phosphate], the IC50 (read-out: IC50) is above 20000 nM.

For `COC(=O)CCCCCCCCCCCCCCn1c(C)nc2nc(Cl)nc(S(=O)(=O)C(C)C)c21` [Compound 162, Methyl 15-(2-chloro-6-(isopropylsulfonyl)-8-methyl-7H-purin-7-yl)pentadecanoate], the IC50 (read-out: IC50) is 1 to 1000 nM.

As for `Cc1nc2nc(Cl)nc(Cl)c2n1CCCCCCCCCCCCCCCC(=O)OC(C)C` [Compound 79, isopropyl 16-(2,6-dichloro-8-methyl-7H-purin-7-yl)hexadecanoate], the half-inhibitory concentration (IC50) (read-out: IC50) fell in the range of 1 to 1000 nM.

In the case of `Cc1nc2c(Cl)nc(Cl)nc2n1C` [Compound 83, 2,6-dichloro-8,9-dimethyl-9H-purine], where the note is “read-out: IC50”, the IC50 was above 20000 nM.

In the case of `Cc1nc2nc(Cl)nc(S(=O)(=O)C(C)C)c2n1CCCCCCCCCCCCCCCC(=O)OC[C@H]1COC(C)(C)O1` [Compound 132, (R)-(2,2-dimethyl-1,3-dioxolan-4-yl)methyl 16-(2-chloro-6-(isopropylsulfonyl)-8-methyl-7H-purin-7-yl)hexadecanoate], the half-maximal inhibitory concentration (IC50) (read-out: IC50) was 1 to 1000 nM.

In the case of `COC(=O)CCCCCCCCCCCCCCCn1ccc2c(Cl)nc(Cl)nc21` [Compound 50, methyl 16-(2,4-dichloro-7H-pyrrolo[2,3-d]pyrimidin-7-yl)hexadecanoate], the IC50 (read-out: IC50) was above 20000 nM.

Regarding `COC(=O)CCCCCCCCCCCCCCCn1cnc2ncncc21` [Compound 3], where the note is “read-out: IC50”, the IC50 was above 20000 nM.

For `COC(=O)CCCCCCCCCCCCCCCn1c(C)nc2nc(Cl)nc(Cl)c21` [Compound 29, methyl 16-(2,6-dichloro-8-methyl-7H-purin-7-yl)hexadecanoate], under “read-out: IC50”, the 50% inhibitory concentration (IC50) lay within 1 to 1000 nM.

With `Cc1nc2nc(Cl)nc([S+]([O-])C(C)C)c2n1CCCCCCCCCC[N+]1([O-])CCOCC1` (centres unmarked) [Compound 127, 4-(10-(2-chloro-6-(isopropylsulfinyl)-8-methyl-7H-purin-7-yl)decyl)morpholine 4-oxide], the half-maximal inhibitory concentration (IC50) (read-out: IC50) is above 20000 nM.

Turning to `COc1ccc(Cn2cnc3c(NCCCCCC(=O)O)nc(Cl)nc32)cc1` [Compound 22, 6-((2-chloro-9-(4-methoxybenzyl)-9H-purin-6-yl)amino)hexanoic acid], the concentration for half-maximal inhibition (IC50) (read-out: IC50) was above 20000 nM.

Take `COC(=O)CCCCCCCCCCCCCCCn1c(C)nc2nc(Cl)nc(S(=O)(=O)CCN)c21` [Compound 147, methyl 16-(6-((2-aminoethyl)sulfonyl)-2-chloro-8-methyl-7H-purin-7-yl)hexadecanoate]: under “read-out: IC50”, the half-maximal inhibitory concentration (IC50) is 1000 to 5000 nM.

In the case of `COC(=O)CCCCCCCCCCCCCCCn1c(C)nc2c(Cl)nc(Cl)nc21` [Compound 34, methyl 16-(2,6-dichloro-8-methyl-9H-purin-9-yl)hexadecanoate], under “read-out: IC50”, the concentration for half-maximal inhibition (IC50) fell in the range of 10000 to 20000 nM.

For the compound `Cc1nc2nc(Cl)nc(Cl)c2n1CCCCCCCCCCCCCCCCO` [Compound 75], the IC50 (read-out: IC50) is 1 to 1000 nM.

`Cc1nc2nc(Cl)nc(S(=O)(=O)C(C)C)c2n1CCCCCCCCCCCCCCCc1nnnn1C` [Compound 140, 2-chloro-6-(isopropylsulfonyl)-8-methyl-7-(15-(1-methyl-1H-tetrazol-5-yl)pentadecyl)-7H-purine]: the IC50 (read-out: IC50) was 1 to 1000 nM.

Regarding `OCCOCCOCCOCCn1cnc2nc(Cl)nc(Cl)c21` [Compound 48, 2-(2-(2-(2-(2,6-dichloro-7H-purin-7-yl)ethoxy)ethoxy)ethoxy)ethan-1-ol], where the note is “read-out: IC50”, the half-inhibitory concentration (IC50) was in the range of 1000 to 5000 nM.

Consider `Cc1nc2nc(Cl)nc(S(=O)(=O)C(C)C)c2n1CCCCCCCCCCCCCCCc1noc(=O)n1C` [Compound 167, 3-(15-(2-chloro-6-(isopropylsulfonyl)-8-methyl-7H-purin-7-yl)pentadecyl)-4-methyl-1,2,4-oxadiazol-5(4H)-one], for which the IC50 (read-out: IC50) lay within 1 to 1000 nM.

As to `Clc1nc(Cl)c2c(ncn2C/C=C/Cn2cnc3nc(Cl)nc(Cl)c32)n1` [Compound 54, (E)-1,4-bis(2,6-dichloro-7H-purin-7-yl)but-2-ene], the IC50 (read-out: IC50) lay in the range of 1000 to 5000 nM.

`CCN(CC)c1nc2nc(Cl)nc(Cl)c2n1CCCCCCCCCCCCCCCC(=O)OC` [Compound 117, methyl 16-(2,6-dichloro-8-(diethylamino)-7H-purin-7-yl)hexadecanoate] registered a concentration for half-maximal inhibition (IC50) of 5000 to 10000 nM.

Take `COC(=O)CCCCCCCCCCCCCCCn1cnc2nc(Cl)nc(N(C)C)c21` [Compound 24, methyl 16-(2-chloro-6-(dimethylamino)-7H-purin-7-yl)hexadecanoate]: the concentration for half-maximal inhibition (IC50) (read-out: IC50) lay within 1000 to 5000 nM.

On to `COC(=O)CCCCCCCCCCCCCCCn1cnc2nc(F)nc(Cl)c21` [Compound 38, methyl 16-(6-chloro-2-fluoro-7H-purin-7-yl)hexadecanoate], for which the IC50 (read-out: IC50) lay within 1000 to 5000 nM.

For `COC(=O)CCCCCCCCCCCCCCCn1c(C)nc2nc(Cl)nc(S(=O)(=O)C(C)C)c21` [Compound 74, methyl 16-(2-chloro-6-(isopropylsulfonyl)-8-methyl-7H-purin-7-yl)hexadecanoate], the half-inhibitory concentration (IC50) (read-out: IC50) is 1 to 1000 nM.

For the compound `CC1Nc2nc(Cl)nc(S(=O)(=O)C(C)C)c2N1CCCCCCCCCCCCCCCCO` (centres unmarked) [Compound 112, 16-(2-chloro-6-(isopropylsulfonyl)-8-methyl-8,9-dihydro-7H-purin-7-yl)hexadecan-1-ol], under “read-out: IC50”, the concentration for half-maximal inhibition (IC50) lay in the range of 1000 to 5000 nM.

As to `COC(=O)CCCCCCCCCCCCCCCn1cnc2nc(Cl)nc(S(C)(=O)=O)c21` [Compound 39, methyl 16-(2-chloro-6-(methylsulfonyl)-7H-purin-7-yl) hexadecanoate], where the note is “read-out: IC50”, the IC50 was above 20000 nM.

With `CCCCCCCCCCCCCCCCn1c(CO)nc2nc(Cl)nc(S(=O)(=O)C(C)C)c21` [Compound 122, (2-chloro-7-hexadecyl-6-(isopropylsulfonyl)-7H-purin-8-yl)methanol], the IC50 (read-out: IC50) is 1 to 1000 nM.

For the compound `Cc1nc2nc(Cl)nc(Cl)c2n1CCCCCCCCCCCCCCCCN` [Compound 163, 16-(2,6-dichloro-8-methyl-7H-purin-7-yl)hexadecan-1-amine], the half-maximal inhibitory concentration (IC50) (read-out: IC50) was in the range of 1 to 1000 nM.

Take `Cc1nc2nc(Cl)nc(S(=O)(=O)C(C)C)c2n1CCCCCCCCCCCCCCCC(=O)OCC1CC1` [Compound 158, Cyclopropylmethyl 16-(2-chloro-6-(isopropylsulfonyl)-8-methyl-7H-purin-7-yl)hexadecanoate]: the half-maximal inhibitory concentration (IC50) (read-out: IC50) lay in the range of 1 to 1000 nM.

As to `COC(=O)CCCCn1c(C)nc2nc(Cl)nc(Cl)c21` [Compound 60, methyl 5-(2,6-dichloro-8-methyl-7H-purin-7-yl)pentanoate], where the note is “read-out: IC50”, the IC50 lay within 5000 to 10000 nM.

Take `CNC(=O)CCCCCCCCCCCCCCCn1c(C)nc2nc(Cl)nc(Cl)c21` [Compound 94, 16-(2,6-dichloro-8-methyl-7H-purin-7yl)-N-methylhexadecanamide]: where the note is “read-out: IC50”, the IC50 lay in the range of 1 to 1000 nM.

With `OCCCCCCn1cnc2nc(Cl)nc(Cl)c21` [Compound 45, 6-(2,6-dichloro-7H-purin-7-yl)hexan-1-ol], the IC50 (read-out: IC50) lay within 1000 to 5000 nM.

On to `COCc1nc2nc(Cl)nc(Cl)c2n1CCCCCCCCCCCCCCCC(=O)OC` [Compound 92, Methyl 16-(2,6-dichloro-8-(methoxymethyl)-7H-purin-7-yl)hexadecanoate], for which the concentration for half-maximal inhibition (IC50) (read-out: IC50) is 1 to 1000 nM.

For the compound `COC(=O)CCCCCCCCCCCCCCCn1cnc2nc(N)nc(Cl)c21` [Compound 5], under “read-out: IC50”, the IC50 was 5000 to 10000 nM.
